Measured values: PubChem BioAssay AID248 (DTP/NCI, 2004)
Several values for one entry are separate records, joined by “and”; a condition that tells them apart may be missing. Identical values can stand only once. Inconclusive results and toxic doses are left out. No stated cut-off is given here; in the data, active means T/C of 150% or more; inactive means T/C below 125%.

Tested on: L1210 leukemia ip in BDF1 mice, survival T/C
Assay: NCI In Vivo Anticancer Drug Screen. Data for tumor model L1210 Leukemia (intraperitoneal) in B6D2F1 (BDF1) mice
Conditions: endpoint: mean survival time, higher = longer survival
How it was run: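 Antitumor effect is assessed in tumor-bearing animals. Survival in the compound arm is compared with a vehicle-dosed control arm and expressed as their quotient.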

[1] = dose: 50.0 mg/kg/injection, schedule: Q04DX003 (ip), vehicle: saline
[2] = dose: 100.0 mg/kg/injection, schedule: Q01DX001 (ip), vehicle: saline
[3] = dose: 100.0 mg/kg/injection, schedule: Q04DX003 (ip), vehicle: saline
[4] = dose: 200.0 mg/kg/injection, schedule: Q01DX001 (ip), vehicle: saline
[5] = dose: 200.0 mg/kg/injection, schedule: Q04DX003 (ip), vehicle: saline
[6] = dose: 50.0 mg/kg/injection, schedule: Q01DX009 (ip), vehicle: saline with Tween-80
[7] = dose: 25.0 mg/kg/injection, schedule: Q04DX002 (ip), vehicle: Klucel (hydroxypropylcellulose) (HPC)
[8] = dose: 50.0 mg/kg/injection, schedule: Q04DX002 (ip), vehicle: Klucel (hydroxypropylcellulose) (HPC)
[9] = dose: 100.0 mg/kg/injection, schedule: Q04DX002 (ip), vehicle: Klucel (hydroxypropylcellulose) (HPC)
[10] = dose: 100.0 mg/kg/injection, schedule: Q01DX009 (ip), vehicle: saline
[11] = dose: 200.0 mg/kg/injection, schedule: Q01DX009 (ip), vehicle: saline
[12] = dose: 400.0 mg/kg/injection, schedule: Q01DX009 (ip), vehicle: saline
[13] = dose: 400.0 mg/kg/injection, schedule: Q04DX003 (ip), vehicle: saline
[14] = dose: 200.0 mg/kg/injection, schedule: Q04DX002 (ip), vehicle: Klucel (hydroxypropylcellulose) (HPC)
[15] = dose: 400.0 mg/kg/injection, schedule: Q04DX002 (ip), vehicle: Klucel (hydroxypropylcellulose) (HPC)
[16] = dose: 50.0 mg/kg/injection, schedule: Q01DX009 (ip), vehicle: Klucel (hydroxypropylcellulose) (HPC)
[17] = dose: 100.0 mg/kg/injection, schedule: Q01DX009 (ip), vehicle: Klucel (hydroxypropylcellulose) (HPC)
[18] = dose: 100.0 mg/kg/injection, schedule: Q01DX001 (ip), vehicle: carboxymethylcellulose (CMC)
[19] = dose: 200.0 mg/kg/injection, schedule: Q01DX001 (ip), vehicle: carboxymethylcellulose (CMC)
[20] = dose: 400.0 mg/kg/injection, schedule: Q01DX001 (ip), vehicle: carboxymethylcellulose (CMC)
[21] = dose: 100.0 mg/kg/injection, schedule: Q04DX002 (ip), vehicle: saline with Tween-80
[22] = dose: 200.0 mg/kg/injection, schedule: Q04DX002 (ip), vehicle: saline with Tween-80
[23] = dose: 400.0 mg/kg/injection, schedule: Q04DX002 (ip), vehicle: saline with Tween-80

Measured: T/C

CC1C(c2ccccc2)OCCN1C (stereo not given)
inactive: [1] 108 % of control | [2] 93 % of control | [3] 108 % of control | [4] 104 % of control | [5] 104 % of control

CC(C)N(C(=S)SSC(=S)N(C(C)C)C(C)C)C(C)C
inactive: [6] 97 % of control | dose: 100.0 mg/kg/injection, schedule: Q01DX009 (ip), vehicle: saline with Tween-80 101 % of control | dose: 200.0 mg/kg/injection, schedule: Q01DX009 (ip), vehicle: saline with Tween-80 97 % of control

Cc1c([N+](=O)[O-])cc(C(C)(C)C)c(OC(=O)C(C)(C)C)c1[N+](=O)[O-]
inactive: [7] 95 % of control | [8] 100 % of control | [9] 92 % of control

COC(=O)C1(Br)CCC1(Br)C(=O)OC (stereo not given)
inactive: [10] 100 % of control | [3] 93 % of control | [11] 100 % of control | [5] 100 % of control | [12] 98 % of control | [13] 102 % of control

CCSCCO
inactive: [3] 92 % of control | [5] 102 % of control | [13] 100 % of control

O=C(NC(=S)N1CCCC1)c1ccccc1
inactive: [9] 96 % of control | [14] 107 % of control | [15] 96 % of control

OCC1C2CCC(O2)C1CO (stereo not given)
inactive: dose: 0.75 mg/kg/injection, schedule: Q04DX002 (ip), vehicle: saline 96 % of control | dose: 1.5 mg/kg/injection, schedule: Q04DX002 (ip), vehicle: saline 93 % of control and 110 % of control | dose: 3.0 mg/kg/injection, schedule: Q04DX002 (ip), vehicle: saline 96 % of control | dose: 6.0 mg/kg/injection, schedule: Q04DX002 (ip), vehicle: saline 101 % of control and 115 % of control | dose: 12.5 mg/kg/injection, schedule: Q04DX002 (ip), vehicle: saline 101 % of control | dose: 25.0 mg/kg/injection, schedule: Q04DX002 (ip), vehicle: saline 108 % of control | dose: 50.0 mg/kg/injection, schedule: Q04DX002 (ip), vehicle: saline 111 % of control | dose: 100.0 mg/kg/injection, schedule: Q04DX002 (ip), vehicle: saline 105 % of control

O=[N+]([O-])c1ccc(Cl)c(I)c1
inactive: dose: 12.5 mg/kg/injection, schedule: Q01DX009 (ip), vehicle: saline with Tween-80 94 % of control | dose: 25.0 mg/kg/injection, schedule: Q01DX009 (ip), vehicle: saline with Tween-80 94 % of control | dose: 50.0 mg/kg/injection, schedule: Q01DX009 (ip), vehicle: saline + alcohol 92 % of control | [6] 94 % of control | dose: 200.0 mg/kg/injection, schedule: Q01DX009 (ip), vehicle: saline + alcohol 92 % of control

CN(C)/N=C/C=C/c1ccccc1
inactive: dose: 25.0 mg/kg/injection, schedule: Q01DX009 (ip), vehicle: Klucel (hydroxypropylcellulose) (HPC) 98 % of control | [16] 102 % of control | dose: 50.0 mg/kg/injection, schedule: Q04DX003 (ip), vehicle: Klucel (hydroxypropylcellulose) (HPC) 100 % of control | [17] 88 % of control | [10] 105 % of control | dose: 100.0 mg/kg/injection, schedule: Q04DX003 (ip), vehicle: Klucel (hydroxypropylcellulose) (HPC) 99 % of control | [3] 98 % of control | [11] 100 % of control | dose: 200.0 mg/kg/injection, schedule: Q04DX003 (ip), vehicle: Klucel (hydroxypropylcellulose) (HPC) 97 % of control | [5] 97 % of control | [13] 102 % of control

OC1COCOC1 (tested in a mixture with another compound)
inactive: [10] 104 % of control | [3] 105 % of control | [11] 104 % of control | [5] 102 % of control | [12] 111 % of control | [13] 109 % of control

O=C(O)C1(Cl)C2(Cl)C(Cl)=CC3(Cl)C(Cl)(C(=O)O)C2(Cl)C31Cl (stereo not given)
inactive: dose: 50.0 mg/kg/injection, schedule: Q01DX001 (ip), vehicle: saline 108 % of control | [2] 103 % of control | [4] 101 % of control | dose: 400.0 mg/kg/injection, schedule: Q01DX001 (ip), vehicle: saline 97 % of control

CC(=O)OC1CCC2(C)C3=C(CCC2C1(C)C)C1(C)CCC(C(C)CCC=C(C)C)C1(C)CC3 (stereo not given)
inactive: [16] 102 % of control | [17] 94 % of control

O=CN(O)CC(=O)O.[Zn]
inactive: dose: 6.25 mg/kg/injection, schedule: Q01DX009 (ip), vehicle: saline 105 % of control | dose: 12.5 mg/kg/injection, schedule: Q01DX009 (ip), vehicle: saline 100 % of control | dose: 25.0 mg/kg/injection, schedule: Q01DX009 (ip), vehicle: saline 120 % of control

Cc1[nH]ccc2c(C)c3nc4c5ccccc5ccc4c3cc12
inactive: dose: 60.0 mg/kg/injection, schedule: Q01DX Z (ip), vehicle: carboxymethylcellulose (CMC) 98 % of control | dose: 120.0 mg/kg/injection, schedule: Q01DX Z (ip), vehicle: carboxymethylcellulose (CMC) 98 % of control | dose: 240.0 mg/kg/injection, schedule: Q01DX Z (ip), vehicle: carboxymethylcellulose (CMC) 90 % of control

O=C(Nc1ccc(F)cc1)Nc1ccccc1C(F)(F)F
inactive: [17] 95 % of control | dose: 200.0 mg/kg/injection, schedule: Q01DX009 (ip), vehicle: Klucel (hydroxypropylcellulose) (HPC) 97 % of control | dose: 400.0 mg/kg/injection, schedule: Q01DX009 (ip), vehicle: Klucel (hydroxypropylcellulose) (HPC) 88 % of control

COc1cc(N=Nc2ccccc2OC)ccc1N
inactive: dose: 50.0 mg/kg/injection, schedule: Q01DX001 (ip), vehicle: carboxymethylcellulose (CMC) 97 % of control | [18] 109 % of control | [19] 106 % of control | [20] 101 % of control

NC(N)=N/N=C/C(N)(/C=N/N=C(N)N)/C=N/N=C(N)N
inactive: dose: 120.0 mg/kg/injection, schedule: Q01DX Z (oral), vehicle: saline 106 % of control | dose: 240.0 mg/kg/injection, schedule: Q01DX Z (oral), vehicle: saline 114 % of control | dose: 480.0 mg/kg/injection, schedule: Q01DX Z (oral), vehicle: saline 113 % of control | dose: 960.0 mg/kg/injection, schedule: Q01DX Z (oral), vehicle: saline 106 % of control

CCN(CC)CCn1c2ccncc2c2cnccc21
inactive: dose: 25.0 mg/kg/injection, schedule: Q04DX003 (ip), vehicle: saline 96 % of control | [1] 101 % of control | [3] 103 % of control

CCCCC/C(C)=C1\Oc2c(C)c(C)cc(C)c2C1=O
inactive: [21] 100 % of control | [22] 107 % of control | [23] 114 % of control

COc1ccc2c(c1)CN(C)CC2
inactive: dose: 75.0 mg/kg/injection, schedule: Q01DX001 (ip), vehicle: other 108 % of control

O=C1C=CC[C@H](/C=C/c2ccccc2)O1
inactive: dose: 50.0 mg/kg/injection, schedule: Q01DX001 (ip), vehicle: alcohol 101 % of control | dose: 100.0 mg/kg/injection, schedule: Q01DX001 (ip), vehicle: alcohol 103 % of control | dose: 200.0 mg/kg/injection, schedule: Q01DX001 (ip), vehicle: alcohol 101 % of control | dose: 400.0 mg/kg/injection, schedule: Q01DX001 (ip), vehicle: alcohol 107 % of control

COc1ccc(Br)cc1/C=C\C=O
inactive: [18] 87 % of control | [19] 105 % of control | [20] 100 % of control

COC(=O)C(=O)CC(=O)c1cccc(OC)c1
inactive: [7] 93 % of control | [8] 100 % of control | [9] 107 % of control and 123 % of control | [14] 93 % of control and 100 % of control | [15] 103 % of control

CC(C)(C)Sc1nc2ccccc2s1
inactive: dose: 25.0 mg/kg/injection, schedule: Q04DX002 (ip), vehicle: saline with Tween-80 93 % of control | dose: 50.0 mg/kg/injection, schedule: Q04DX002 (ip), vehicle: saline with Tween-80 93 % of control | [21] 96 % of control | [22] 105 % of control and 119 % of control | [23] 107 % of control
